Target: T1, mannose receptor (Rattus norvegicus, UniProt A0A8I5XVS2)
T1 construct: NR8383 rat alveolar macrophages were obtained from ATCC; host or cells: NR8383 rat alveolar macrophages
T1 sequence (A0A8I5XVS2 1-1431): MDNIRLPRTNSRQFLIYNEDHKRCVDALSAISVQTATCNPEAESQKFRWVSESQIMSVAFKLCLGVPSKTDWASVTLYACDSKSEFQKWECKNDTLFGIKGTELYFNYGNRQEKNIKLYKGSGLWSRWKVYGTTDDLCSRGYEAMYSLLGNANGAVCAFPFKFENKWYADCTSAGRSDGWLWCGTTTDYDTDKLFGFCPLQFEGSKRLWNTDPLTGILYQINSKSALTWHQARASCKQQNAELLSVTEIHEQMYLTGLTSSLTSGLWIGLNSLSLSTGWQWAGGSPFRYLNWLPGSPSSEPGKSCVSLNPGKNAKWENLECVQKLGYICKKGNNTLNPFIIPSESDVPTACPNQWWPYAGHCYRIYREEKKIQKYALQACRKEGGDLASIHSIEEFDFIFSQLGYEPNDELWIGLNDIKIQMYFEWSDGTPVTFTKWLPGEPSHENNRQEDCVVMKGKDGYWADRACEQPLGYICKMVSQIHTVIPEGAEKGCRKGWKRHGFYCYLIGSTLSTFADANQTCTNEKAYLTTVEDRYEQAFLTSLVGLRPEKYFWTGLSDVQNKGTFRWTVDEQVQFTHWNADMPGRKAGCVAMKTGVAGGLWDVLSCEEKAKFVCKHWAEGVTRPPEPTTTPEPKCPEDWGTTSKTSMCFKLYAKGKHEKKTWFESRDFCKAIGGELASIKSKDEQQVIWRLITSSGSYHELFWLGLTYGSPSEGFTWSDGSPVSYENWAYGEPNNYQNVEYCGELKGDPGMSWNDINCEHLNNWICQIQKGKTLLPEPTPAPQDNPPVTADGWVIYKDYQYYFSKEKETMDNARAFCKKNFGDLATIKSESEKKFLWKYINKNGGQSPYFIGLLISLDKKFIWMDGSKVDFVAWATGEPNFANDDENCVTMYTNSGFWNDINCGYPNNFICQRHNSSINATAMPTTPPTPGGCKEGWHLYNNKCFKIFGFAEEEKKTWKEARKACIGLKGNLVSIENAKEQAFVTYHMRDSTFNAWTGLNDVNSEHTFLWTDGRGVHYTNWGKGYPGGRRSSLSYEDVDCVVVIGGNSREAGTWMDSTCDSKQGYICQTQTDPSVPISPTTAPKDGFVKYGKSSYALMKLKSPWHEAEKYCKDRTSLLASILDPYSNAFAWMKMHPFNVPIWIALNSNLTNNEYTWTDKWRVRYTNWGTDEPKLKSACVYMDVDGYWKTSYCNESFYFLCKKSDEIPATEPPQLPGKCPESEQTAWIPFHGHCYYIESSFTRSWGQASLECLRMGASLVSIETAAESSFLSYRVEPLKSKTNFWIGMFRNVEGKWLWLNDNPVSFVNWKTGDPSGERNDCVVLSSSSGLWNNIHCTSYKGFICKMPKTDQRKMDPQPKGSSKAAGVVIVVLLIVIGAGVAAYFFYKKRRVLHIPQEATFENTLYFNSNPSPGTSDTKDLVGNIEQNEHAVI
Assay: Uptake of Alexa488-SI-0052 in NR8383 in the presence of competing sugars
Type: cell-based
Conditions: 250 nM Alexa488-SI-0052, varying sugar concentrations; FIG. 1b
Description: NR8383 rat alveolar macrophages were obtained from ATCC and cultured in gelatin coated flasks in F12K medium +15% heat inactivated FBS+antibiotics. For uptake experiments, NR8383 were seeded in gelatin coated 96 well plates and allowed to reach confluence. […] Each condition was carried out in triplicate. […] Cells were transferred to V-bottom 96 well plates and centrifuged (800 g, 7 min, 4C) to collect. Pellets were washed with cold 5 mM EDTA and again centrifuged. Cells were then resuspended in 1% paraformaldehyde in PBS and stored at 4C in the dark until analysis.
Uptake of Alexa488-SI-0052, as measured by cellular fluorescence, was assessed using flow cytometry (FACSCalibur). The geometric mean of fluorescence for 5000-10000 cells was measured for each sample. Mannose specific uptake was taken to be the difference between total uptake (without mannan) and the uptake in the presence of mannan (non-specific uptake).
The uptake of Alexa488-SI-0052 was measured, as described above, in the presence of various sugars known to have varying affinities for the mannose receptor. NR8383 were incubated with a constant concentration of Alexa488-SI-0052 (250 nM, chosen because this concentration lies on the concentration dependent portion of the Alexa488-SI-0052 uptake curve) and varying concentrations of α-methyl mannose (α-MM), glucose and galactose.

## COC1O[C@H](CO)[C@@H](O)[C@H](O)[C@@H]1O (stereo partly drawn) [α-MM, α-methyl mannose]
  Interference with Alexa488-SI-0052 uptake (rank order): interferes the most

## O=C[C@H](O)[C@@H](O)[C@@H](O)[C@H](O)CO [galactose]
  Interference with Alexa488-SI-0052 uptake (rank order): then galactose

Reference: US20130302825A1, “USES OF MACROPHAGE MANNOSE RECEPTOR TO SCREEN COMPOUNDS AND USES OF THESE COMPOUNDS” (Merck, priority 2010, published 2013)
